Data as given in patent US10131661B2, “High-solubility acetone-added pyrroloquinoline quinone salt” (Mitsubishi Gas Chemical Company, Inc., priority 2015, dated 2018).
≈ marks a conversion by molar mass, not a printed value.

Experiments:
[1] = Storage stability in a solid state, visual check after 1 month; format: physicochemical
Experimental: The HOP alkali metal salt fabricated in each Example was subjected to cold storage (4° C.) and room-temperature storage (23° C.) in a solid state, and changes after a lapse of 1 month were visually checked.

physchem = conditions: 30 °C, water, thermodynamic from solid
Experimental: (§1) Water in such an amount that the HOP alkali metal salt fabricated in each Example remained undissolved was added to 100 mg of the HOP alkali metal salt. The resultant solution was allowed to stand still at 30° C. for 1 hour or more. Then, the solution was centrifugally separated to thereby separate a supernatant liquid and the HOP alkali metal salt remaining undissolved, and thereafter, the supernatant was diluted and the absorbance at 360 nm was measured. The solubility was calculated from the obtained absorbance.

[2] = Measurement of the solubility (30° C.) of a HOP alkali metal salt to water; conditions: 1 hour or more, absorbance at 360 nm
Experimental: as §1

[3] = test system: Human uterine cancer cells, HeLa cells; experiment: Cell activity test (cell number by Cell Counting Kit 8); format: cell-based; conditions: 2 days
Experimental: Human uterine cancer cells, HeLa cells, were scattered on 96 wells so as to be 1,000 cells/well, and were cultivated in a DMEM (Invitrogen Corp.)+10% FBS culture medium under the condition of a 5% CO2 concentration and 37° C. in an incubator for one night. Thereafter, the HOP alkali metal salt fabricated in each Example was added to the culture medium so that the concentration of the HOP alkali metal salt became 4.9 mg/L and 19.5 mg/L. Further the cultivation was continued further for 2 days, and thereafter, the culture medium was removed from the wells; the well interiors were washed; and the number of the cells in the wells were measured by using a Cell Counting Kit 8 manufactured by Dojindo Laboratories. There are shown in the following Table the results in the case where the number of the cells when no HOP alkali metal salt was added to the culture medium was taken to be 100.

[4] = Chemical stability: color change on mixing with ascorbic acid aqueous solution; format: physicochemical; conditions: 10 mg sample, 200 μl of 10 mass % ascorbic acid aqueous solution
Experimental: [Chemical Stability] The HOP disodium fabricated in Example 1 and pyrroloquinoline quinone disodium were tested. 10 mg of the each sample was put in a test tube, and 200 μl of a 10 mass % ascorbic acid aqueous solution was mixed.

Compound	Cold Storage (4° C.): visual change [1]	Room-Temperature Storage (23° C.): visual change [1]	also measured
O=C(O)c1cc(C(=O)O)c2c(n1)C(=O)C(=O)c1cc(C(=O)O)[nH]c1-2 [PQQ free form, pyrroloquinoline quinone]			solubility (physchem): 1 mM (≈ 330 µg/mL)
HOP dipotassium	no change	no change	
O=C(O)c1cc(C(=O)O)c2c(n1)C(=O)C(=O)c1cc(C(=O)O)[nH]c1-2 [PQQ trisodium, reference compound]			Saturated Solubility [2]: 35 mM
HOP trisodium hydrogen carbonate cocrystal	no change	no change	
O=C(O)c1cc(C(=O)O)c2c(n1)C(=O)C(=O)c1cc(C(=O)O)[nH]c1-2.[Na].[Na] [PQQ disodium, pyrroloquinoline quinone disodium, reference compound]			solubility (physchem): 7.5 mM; color change with ascorbic acid [4]: changed in the color to black
CC(=O)CC1(O)C(=O)c2cc(C(=O)[O-])[nH]c2-c2c(C(=O)[O-])cc(C(=O)[O-])nc21.[K+].[K+].[K+] (centres unmarked) [HOP tripotassium]	no change		
HOP dilithium	no change	no change	
CC(=O)CC1(O)C(=O)c2cc(C(=O)[O-])[nH]c2-c2c(C(=O)[O-])cc(C(=O)[O-])nc21.[Na+].[Na+].[Na+] (racemic) [HOP trisodium]	no change	change to brown	number of the cells (no addition taken to be 100) ([3]; 4.9 mg/L): 128; number of the cells (no addition taken to be 100) ([3]; 19.5 mg/L): 121
HOP disodium	no change	no change	color change with ascorbic acid [4]: no large change in the color; number of the cells (no addition taken to be 100) ([3]; 4.9 mg/L): 116; number of the cells (no addition taken to be 100) ([3]; 19.5 mg/L): 130; Saturated Solubility [2]: 290 mM
HOP 2.5 sodium	no change	no change	
HOP disodium hydrogen carbonate cocrystal	no change	no change	

Continued, in another order:

Cold Storage (4° C.): visual change [1]	Room-Temperature Storage (23° C.): visual change [1]	Compound	also measured
no change		CC(=O)CC1(O)C(=O)c2cc(C(=O)[O-])[nH]c2-c2c(C(=O)[O-])cc(C(=O)[O-])nc21.[Li+].[Li+].[Li+] (racemic) [HOP trilithium]	
no change		CC(=O)CC1(O)C(=O)c2cc(C(=O)O)[nH]c2-c2c(C(=O)O)cc(C(=O)O)nc21 (centres unmarked) [HOP free form, 5-Hydroxy-4-oxo-5-(2-oxopropyl)-4,5-dihydro-1H-pyrrolo[2,3-f]quinoline-2,7,9-tricarboxylic acid, reference compound]	solubility (physchem): 2.9 mM (≈ 1130 µg/mL); number of the cells (no addition taken to be 100) ([3]; 4.9 mg/L): 95; number of the cells (no addition taken to be 100) ([3]; 19.5 mg/L): 103
no change	no change	HOP 2.9 sodium	
